Experimental data as given in patent publication US8106055B2, “Substituted amide compounds” (Gruenenthal GmbH, priority 2007, dated 2012).

Target: T1, serotonin (5-HT) reuptake (Rattus norvegicus, UniProt P31652)
T1 construct: synaptosomes are freshly isolated from areas of the rat brain; from tissue; host or cells: rat brain synaptosomes (P2 fraction)
Experiment: Inhibition of serotonin (5HT) reuptake in synaptosomes from rat brain
Format: biochemical
Conditions: test concentration of 10 μM
How it was run: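 Freshly isolated rat brain synaptosomes (P2 fraction) used for 5-HT reuptake. Test compound at 10 μM, activity given as % inhibition.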

T1 sequence (P31652 whole entry): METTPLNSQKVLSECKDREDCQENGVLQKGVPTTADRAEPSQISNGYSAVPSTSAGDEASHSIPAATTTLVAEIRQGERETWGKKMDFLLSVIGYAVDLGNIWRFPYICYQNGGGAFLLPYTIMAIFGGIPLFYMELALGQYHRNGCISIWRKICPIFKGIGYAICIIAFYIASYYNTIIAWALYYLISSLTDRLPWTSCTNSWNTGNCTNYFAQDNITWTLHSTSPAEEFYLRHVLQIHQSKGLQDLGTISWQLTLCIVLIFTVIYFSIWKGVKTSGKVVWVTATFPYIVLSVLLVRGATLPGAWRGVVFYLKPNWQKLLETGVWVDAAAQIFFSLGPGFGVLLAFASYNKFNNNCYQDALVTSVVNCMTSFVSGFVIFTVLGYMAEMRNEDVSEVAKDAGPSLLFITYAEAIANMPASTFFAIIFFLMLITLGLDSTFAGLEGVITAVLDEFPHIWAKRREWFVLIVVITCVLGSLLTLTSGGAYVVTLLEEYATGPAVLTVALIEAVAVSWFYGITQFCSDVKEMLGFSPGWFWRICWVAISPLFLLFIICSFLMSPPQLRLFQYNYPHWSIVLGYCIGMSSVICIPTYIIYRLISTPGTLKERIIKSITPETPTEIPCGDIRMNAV

| SMILES | 5-HT (inhibition of reuptake of serotonin, % inhibition) |
| --- | --- |
| Cc1cc(C)c(S(=O)(=O)N(C)CCOCC(=O)NC2CCC(C(c3ccc(F)cc3)N(C)C)CC2)c(C)c1 (centres unmarked) [Example 490] | 86% |
| COc1ccc(S(=O)(=O)N(C)CCOCC(=O)NCCC2CCC(C(c3ccc(Cl)cc3)N(C)C)CC2)cc1 (centres unmarked) [Example 460] | 86% |
| COc1ccc(S(=O)(=O)N2CCCCC2COCC(=O)NCCC2CCC(C(c3ccc(Cl)cc3)N(C)C)CC2)cc1OC (centres unmarked) [Example 540] | 81% |
| CN(C)C(CCc1ccccc1)C1CCC(CNC(=O)COCCN(C)S(=O)(=O)c2ccc(F)cc2)CC1 (centres unmarked) [Example 539] | 102% |
| COc1ccc(S(=O)(=O)N(C)CCOCC(=O)NCC2CCC(C(c3ccc(F)cc3)N(C)C)CC2)cc1 (centres unmarked) [Example 508] | 80% |
| COc1ccc(S(=O)(=O)N(C)CCOCC(=O)NCCC2CCC(C(c3ccc(F)cc3)N(C)C)CC2)cc1 (centres unmarked) [Example 519] | 88% |
| COc1ccc(S(=O)(=O)N2CCCCC2COCC(=O)NC2CCC(C(c3ccc(F)cc3)N(C)C)CC2)cc1 (centres unmarked) [Example 450] | 90% |
| CN(C)C(CCc1ccccc1)C1CCC(CNC(=O)COC2CCN(S(=O)(=O)c3ccc(Cl)cc3Cl)C2)CC1 (centres unmarked) [Example 496] | 89% |
| COc1cc(C)c(S(=O)(=O)N(CCOCC(=O)NC2CCC(C(c3ccc(F)cc3)N(C)C)CC2)Cc2ccccc2)c(C)c1C (centres unmarked) [Example 523] | 81% |
| COc1ccc(S(=O)(=O)N2CCC(OCC(=O)NCC3CCC(C(c4ccc(F)cc4)N(C)C)CC3)C2)cc1OC (centres unmarked) [Example 497] | 86% |
| CN(C)C(c1ccc(F)cc1)C1CCC(CNC(=O)COC2CCCN(S(=O)(=O)c3ccccc3)C2)CC1 (centres unmarked) [Example 488] | 94% |
| COc1ccc(S(=O)(=O)N2CCCCC2COCC(=O)NC2CCC(C(c3ccc(F)cc3)N(C)C)CC2)c(OC)c1 (centres unmarked) [Example 524] | 86% |
| CN(C)C(c1ccccc1)C1CCC(CNC(=O)COCCC2CCN(S(=O)(=O)c3ccccc3)CC2)CC1 (centres unmarked) [Example 507] | 75% |
| COc1ccc(S(=O)(=O)N2CCCCC2COCC(=O)NCC2CCC(C(CCc3ccccc3)N(C)C)CC2)cc1 (centres unmarked) [Example 469] | 87% |
| COc1ccc(S(=O)(=O)N2CCCCC2COCC(=O)NCCC2CCC(C(c3ccc(F)cc3)N(C)C)CC2)c(OC)c1 (centres unmarked) [Example 500] | 90% |
| COc1cc(C)c(S(=O)(=O)N2CCC(OCC(=O)NCCC3CCC(C(c4ccc(F)cc4)N(C)C)CC3)C2)c(C)c1 (centres unmarked) [Example 509] | 97% |
| COc1ccc(S(=O)(=O)N2CCC(OCC(=O)NC3CCC(C(c4ccc(F)cc4)N(C)C)CC3)C2)cc1OC (centres unmarked) [Example 512] | 86% |
| Cc1ccc(S(=O)(=O)N(C)CCOCC(=O)NCCC2CCC(C(c3ccc(F)cc3)N(C)C)CC2)cc1 (centres unmarked) [Example 457] | 90% |
| COc1cc(C)c(S(=O)(=O)N2CCCC(OCC(=O)NCCC3CCC(C(c4ccc(F)cc4)N(C)C)CC3)C2)c(C)c1C (centres unmarked) [Example 468] | 95% |

| SMILES | 5-HT (inhibition of reuptake of serotonin, % inhibition) |
| --- | --- |
| CN(C)C(CCc1ccccc1)C1CCC(CNC(=O)COCCN(C)S(=O)(=O)c2c(Cl)cc(Cl)cc2Cl)CC1 (centres unmarked) [Example 515] | 97% |
| CN(C)C(CCc1ccccc1)C1CCC(CNC(=O)COC2CCCCC2N(C)S(=O)(=O)c2ccc(Cl)c(Cl)c2)CC1 (centres unmarked) [Example 451] | 84% |
| COc1cc(C)c(S(=O)(=O)N2CCC(OCC(=O)NCCC3CCC(C(c4ccc(F)cc4)N(C)C)CC3)C2)c(C)c1C (centres unmarked) [Example 467] | 95% |
| Cc1ccc(S(=O)(=O)N(C)CCOCC(=O)NCC2CCC(C(CCc3ccccc3)N(C)C)CC2)cc1 (centres unmarked) [Example 452] | 88% |
| CN(C)C(c1ccc(Cl)cc1)C1CCC(CNC(=O)COC2CCN(S(=O)(=O)c3ccccc3)CC2)CC1 (centres unmarked) [Example 471] | 94% |
| COc1cc(C)c(S(=O)(=O)N2CCCC(OCC(=O)NCCC3CCC(C(c4ccc(Cl)cc4)N(C)C)CC3)C2)c(C)c1C (centres unmarked) [Example 485] | 92% |
| CN(C)C(CCc1ccccc1)C1CCC(CNC(=O)COCCN(Cc2ccccc2)S(=O)(=O)c2ccccc2)CC1 (centres unmarked) [Example 533] | 93% |
| COc1cc(C)c(S(=O)(=O)N2CCC(OCC(=O)NCC3CCC(C(CCc4ccccc4)N(C)C)CC3)C2)c(C)c1C (centres unmarked) [Example 503] | 90% |
| COc1ccc(S(=O)(=O)N(C)CCOCC(=O)NCCC2CCC(C(c3ccc(F)cc3)N(C)C)CC2)cc1OC (centres unmarked) [Example 484] | 96% |
| CN(C)C(c1ccc(F)cc1)C1CCC(CNC(=O)COC2CCN(S(=O)(=O)c3ccc(F)cc3)C2)CC1 (centres unmarked) [Example 522] | 98% |
| CN(C)C(c1ccc(F)cc1)C1CCC(CCNC(=O)COCCN(Cc2ccccc2)S(=O)(=O)c2ccccc2)CC1 (centres unmarked) [Example 489] | 97% |
| CN(C)C(c1cccc(F)c1)C1CCC(CNC(=O)COC2CCN(S(=O)(=O)c3ccccc3)CC2)CC1 (centres unmarked) [Example 477] | 95% |
| COc1cc(C)c(S(=O)(=O)N(CCOCC(=O)NC2CCC(C(c3ccc(F)cc3)N(C)C)CC2)Cc2ccccc2)c(C)c1 (centres unmarked) [Example 504] | 89% |
| COc1cc(C)c(S(=O)(=O)N(CCOCC(=O)NCC2CCC(C(c3ccc(F)cc3)N(C)C)CC2)Cc2ccccc2)c(C)c1 (centres unmarked) [Example 494] | 89% |
| COc1cc(C)c(S(=O)(=O)N2CCC(OCC(=O)NCCC3CCC(C(c4ccc(F)cc4)N(C)C)CC3)CC2)c(C)c1C (centres unmarked) [Example 480] | 98% |
| COc1ccc(S(=O)(=O)N2CCCCC2COCC(=O)NCCC2CCC(C(c3ccc(F)cc3)N(C)C)CC2)cc1OC (centres unmarked) [Example 462] | 90% |
| COc1cc(C)c(S(=O)(=O)N2CCC(OCC(=O)NCCC3CCC(C(c4ccc(Cl)cc4)N(C)C)CC3)CC2)c(C)c1C (centres unmarked) [Example 472] | 95% |
| CN(C)C(c1ccc(Cl)cc1)C1CCC(CCNC(=O)COCCC2CCN(S(=O)(=O)c3ccccc3)CC2)CC1 (centres unmarked) [Example 531] | 98% |
| COc1cc(C)c(S(=O)(=O)N2CCC(CCOCC(=O)NCC3CCC(C(c4ccc(Cl)cc4)N(C)C)CC3)CC2)c(C)c1C (centres unmarked) [Example 499] | 75% |
